SMILES strings stand for the structures.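 Cells were grown in 96-well plates and exposed to each compound for 48 hours at five concentrations; endpoints were interpolated linearly between bracketing concentrations, or set to the highest concentration if not reached. The concentration for 50% growth inhibition is given as GI50.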 The source made the active and inactive calls. Cut-off read from the data, not from the text of the source: active = GI50 up to about 1.1 µM and inactive = higher. *1 amine or outer side, *2 acyl side, *3 side chain or, on linkers, in order; H or OH if unused. Where a SMILES comes first, the peptide text is derived from it. Non-standard residues stand in square brackets, D forms with d. Residues, ends and D or L forms follow the SMILES beside them. Bridges are numbered along the chain shown (N, C = ends). [ ]: non-standard residue; d: D form. ξ: configuration not given here. X10 = CCC(C)C(N[*:1])C(O)CC(=O)O[C@H](C(=O)C(C)C(=O)[*:2])C(C)C; NMeY = CN[C@@H](Cc1ccc(O)cc1)C(=O)O; β3hI = CC[CH](C)[CH](N)CC(=O)O; ξNMeL = CNC(CC(C)C)C(=O)O; ξT = CC(O)C(N)C(=O)O

Test systems include OVCAR-5; HCT-116; SK-MEL-2; KM12; SR; A498; OVCAR-8; CCRF-CEM; MCF7; M14; RPMI-8226; A549; SW-620; TK-10; HOP-92; NCI-H23; MDA-MB-231; SNB-19; SK-MEL-28; SF-539.
Assay in all cases: NCI tumour cell line growth inhibition, 48 h

Consider `CCOC(=O)N1CCN(c2c(N)nc(C)nc2O)CC1`, for which the GI50 in the test on OVCAR-5, in the test with HCT-116, in the test on SK-MEL-2, in the test with KM12, in the test with SR and with A498 was > 100 µM (inactive) throughout. Moreover, the GI50 with OVCAR-8, in the test with CCRF-CEM, with MCF7, with M14, in the test with RPMI-8226 and with A549 was > 100 µM (inactive) in each case. Further, the GI50 with SW-620, in the test with TK-10, in the test with HOP-92, with NCI-H23, in the test on MDA-MB-231 and in the test with SNB-19 was > 100 µM (inactive) in each case. Besides, the GI50 in the test on SK-MEL-28 and with SF-539 was > 100 µM (inactive) each time.

Take `CC1=NN(C(=O)CC(=O)Nc2ccccc2C)C(=O)C1/N=N/c1ccc(C(=O)O)cc1` (stereo not given): the GI50 in the test with OVCAR-5 was > 100 µM (inactive); with HCT-116 it was > 100 µM (inactive); with SK-MEL-2, > 100 µM (inactive); in the test on KM12, > 100 µM (inactive); with SR it was 43.4 µM (inactive); in the test on A498, > 100 µM (inactive). In addition, the GI50 was > 100 µM (inactive) in the test on OVCAR-8; 86.9 µM (inactive) in the test with CCRF-CEM; > 100 µM (inactive) with MCF7; > 100 µM (inactive) in the test with M14; > 100 µM (inactive) in the test with RPMI-8226; > 100 µM (inactive) with A549. In addition, the GI50 in the test on SW-620 was > 100 µM (inactive); with TK-10, > 100 µM (inactive); in the test on HOP-92 it was 20.5 µM (inactive); in the test on NCI-H23, > 100 µM (inactive); in the test on MDA-MB-231, > 100 µM (inactive); with SNB-19, > 100 µM (inactive). In addition, the GI50 with SK-MEL-28 and in the test with SF-539 was > 100 µM (inactive) in each case.

In the case of `CCC(C)C(CC(=O)N1CCCC1C(=O)NC(C(=O)NC(C(=O)NCC(=O)NC(CC(N)=O)C(=O)NC(C(=O)NC(C(=O)NC(CCCCN)C(N)=O)C(C)CC)C(C)CC)C(C)C)C(C)CC)NC(=O)C(N)C(C)CC` (stereo not drawn) (H-I[β3hI]PIVGNIIK-NH2; configuration not given here), the GI50 in the test on OVCAR-5, in the test with HCT-116, in the test on SK-MEL-2, in the test with KM12, in the test with SR and in the test on A498 was > 50 µM (inactive) in each case. For the same molecule, the GI50 with OVCAR-8 is > 50 µM (inactive); in the test with CCRF-CEM, 10.5 µM (inactive); in the test with MCF7, > 50 µM (inactive); in the test with M14 it was > 50 µM (inactive); with RPMI-8226 it was > 50 µM (inactive); with A549 it was > 50 µM (inactive). Also, the GI50 in the test with SW-620, in the test on TK-10, in the test with HOP-92, with NCI-H23, in the test on MDA-MB-231 and in the test on SNB-19 was > 50 µM (inactive) in each case. Further, the GI50 in the test with SK-MEL-28 and in the test with SF-539 was > 50 µM (inactive) each time.

For the molecule `CCOC(=O)c1c2c(n(-c3ccc(C)cc3)c1C)-c1ccccc1C(=O)C2(C(=O)OCC)C(=O)OCC`, the GI50 is 74 µM (inactive) in the test on OVCAR-5; 31.4 µM (inactive) in the test with HCT-116; 36.3 µM (inactive) with SK-MEL-2; 38.5 µM (inactive) in the test on KM12; 1.31 µM (inactive) in the test on SR; 46.6 µM (inactive) in the test with A498. For the same molecule, the GI50 is 29.2 µM (inactive) with OVCAR-8; 29 µM (inactive) in the test with CCRF-CEM; 25.9 µM (inactive) in the test with MCF7; 60.3 µM (inactive) with M14; 14 µM (inactive) with RPMI-8226; 30.7 µM (inactive) in the test on A549. Also, the GI50 was 37.1 µM (inactive) in the test on SW-620; 59.2 µM (inactive) in the test on TK-10; 27.6 µM (inactive) in the test with HOP-92; 57.5 µM (inactive) in the test on NCI-H23; 32.1 µM (inactive) in the test on MDA-MB-231; > 92.7 µM (inactive) in the test with SNB-19. Moreover, the values for the GI50 with SK-MEL-28 and with SF-539 were 27.3 µM (inactive) and 35.8 µM (inactive), respectively.

As to `NC(=O)c1cc(N2CC2)c([N+](=O)[O-])cc1[N+](=O)[O-]` [TRETAZICAR], the GI50 was > 100 µM (inactive) in the test with OVCAR-5; > 100 µM (inactive) in the test with HCT-116; > 20 µM (inactive) in the test with SK-MEL-2; > 100 µM (inactive) in the test on KM12; > 200 µM (inactive) in the test on SR; > 66.7 µM (inactive) with A498. Also, the GI50 in the test with OVCAR-8 is > 100 µM (inactive); with CCRF-CEM it was > 100 µM (inactive); in the test on MCF7 it was > 63.2 µM (inactive); in the test with M14, > 100 µM (inactive); in the test with RPMI-8226, > 100 µM (inactive); in the test on A549 it was > 184 µM (inactive). Moreover, the GI50 is > 100 µM (inactive) in the test on SW-620; > 200 µM (inactive) in the test on TK-10; > 100 µM (inactive) with HOP-92; > 100 µM (inactive) with NCI-H23; > 200 µM (inactive) in the test on MDA-MB-231; > 100 µM (inactive) in the test on SNB-19. For the same molecule, the GI50 was > 200 µM (inactive) with SK-MEL-28 and > 100 µM (inactive) with SF-539.

Regarding `COc1cc2c(/C=C3/C(=O)Nc4ccccc43)c(Cl)[nH]c2cc1C`, the GI50 in the test with OVCAR-5 is 0.129 µM (active); in the test with HCT-116 it was 0.0597 µM (active); in the test with SK-MEL-2, 0.082 µM (active); in the test with KM12, 0.0329 µM (active); in the test on SR, 0.0414 µM (active); in the test on A498, 0.0632 µM (active). Further, the GI50 is 0.0869 µM (active) in the test with OVCAR-8; 0.0583 µM (active) with CCRF-CEM; 0.0502 µM (active) in the test with MCF7; 0.0366 µM (active) with M14; 0.0551 µM (active) in the test with RPMI-8226; 0.0619 µM (active) in the test with A549. For the same molecule, the GI50 in the test on SW-620 was 0.0855 µM (active); in the test with TK-10, 0.173 µM (active); in the test with HOP-92, 1.43 µM (inactive); in the test on NCI-H23 it was 0.0407 µM (active); in the test on MDA-MB-231 it was 0.0893 µM (active); in the test with SNB-19 it was 0.0486 µM (active). In addition, the GI50 is 9.12 µM (inactive) with SK-MEL-28 and 0.0234 µM (active) in the test with SF-539.

As to `CC1=NN(c2cccc(Cl)c2)C2(C1)SCC(=O)N2c1nc2ccccc2s1` (stereo not given), the GI50 was 37 µM (inactive) in the test on OVCAR-5; 17.9 µM (inactive) in the test with HCT-116; 22.3 µM (inactive) in the test with SK-MEL-2; 25.5 µM (inactive) in the test on KM12; 17.9 µM (inactive) in the test with SR; 27.9 µM (inactive) in the test on A498. Moreover, the GI50 is 35.6 µM (inactive) with OVCAR-8; 21.8 µM (inactive) with CCRF-CEM; 25.6 µM (inactive) with MCF7; 26.7 µM (inactive) in the test on M14; 16.3 µM (inactive) with RPMI-8226; 31.2 µM (inactive) in the test on A549. Besides, the GI50 is 32.6 µM (inactive) with SW-620; 30.2 µM (inactive) in the test with TK-10; 32.8 µM (inactive) in the test with HOP-92; 29.2 µM (inactive) with NCI-H23; 19.1 µM (inactive) in the test with MDA-MB-231; 36 µM (inactive) with SNB-19. The GI50 with SK-MEL-28 is 32.8 µM (inactive); in the test on SF-539, 22.8 µM (inactive).

Consider `CCC(C)C1NC(=O)C(NC(=O)C(CC(C)C)N(C)C(=O)[C@@H]2CCCN2)C(C)OC(=O)[C@H](Cc2ccc(OC)cc2)N(C)C(=O)[C@@H]2CCCN2C(=O)[C@H](CC(C)C)NC(=O)C(C)C(=O)[C@H](C(C)C)OC(=O)CC1O` (stereo not given in full) (H-P[ξNMeL][ξT][X10]LP[NMeY](Me); ester 3-C), for which the GI50 in the test on OVCAR-5 is < 0.01 µM (active); in the test with HCT-116, < 0.0001 µM (active); with SK-MEL-2 it was < 0.01 µM (active); in the test on KM12, < 0.01 µM (active); in the test with SR, 0.000317 µM (active); with A498 it was 0.00411 µM (active). For the same molecule, the GI50 was 0.00221 µM (active) in the test with OVCAR-8; 0.000493 µM (active) in the test with CCRF-CEM; < 0.0001 µM (active) in the test on MCF7; 0.000222 µM (active) in the test with M14; 0.00116 µM (active) in the test with RPMI-8226; 0.000533 µM (active) in the test with A549. Besides, the GI50 was 0.000555 µM (active) with SW-620; 0.00355 µM (active) in the test with TK-10; 0.00121 µM (active) with HOP-92; 0.000258 µM (active) in the test with NCI-H23; 0.00042 µM (active) in the test on MDA-MB-231; 0.000721 µM (active) in the test on SNB-19. The GI50 was 0.00014 µM (active) in the test with SK-MEL-28 and 0.000322 µM (active) in the test on SF-539.

Turning to `N#CCC1C2CC3C(C2=O)C13` (stereo not given), the GI50 with OVCAR-5, in the test on HCT-116, in the test on SK-MEL-2, with KM12, in the test on SR and in the test with A498 was > 100 µM (inactive) throughout. Also, the GI50 in the test on OVCAR-8, in the test with CCRF-CEM, in the test with MCF7, in the test with M14, with RPMI-8226 and in the test on A549 was > 100 µM (inactive) throughout. Further, the GI50 in the test with SW-620, in the test with TK-10, in the test with HOP-92, in the test with NCI-H23, with MDA-MB-231 and in the test with SNB-19 was > 100 µM (inactive) throughout. In addition, the GI50 with SK-MEL-28 and in the test with SF-539 was > 100 µM (inactive) in each case.

(Values after ChEMBL document CHEMBL1201862, “PubChem BioAssay data set” (2004).)
